Assay results taken from patent US20020082193A1, “Inhibition of mitochondrial calcium/sodium antiporter” (priority 2000, published 2002).
Read-outs that look alike come from different tables or passages of the source.

Key:
[1] = system: mitochondrial calcium/sodium antiporter (MCA) from beef heart mitochondria; experiment: Sodium-calcium exchange in proteoliposomes reconstituted with affinity isolated MCA; assay type: biochemical; details: 100 μM calcium chloride, FIG. 8
Procedure: From a separate preparation of beef heart mitochondria, affinity isolation of the MCA was performed as just described, except that 1% CHAPS was substituted for 1% Triton X-100 in the initial solubilization, and following the column wash steps, retained components (including proteins bound to the affinity matrix) were eluted with 50 mM diltiazem. The column eluate containing proteins was incorporated into proteoliposomes essentially as described by Li et al (1992 J. Biol. Chem. 267: 17983-17989), using Calcium Green SN as the internal fluorescent probe (Molecular Probes, Eugene, OR), and calcium transport activity of the MCA was measured essentially as described by Li et al. (1992). Briefly, calcium chloride (100 μM) was added to a suspension of Calcium Green 5N-loaded proteoliposomes to initiate sodium-calcium exchange, which was measured as an increase in fluorescence as the calcium entered the vesicles that contained Calcium Green 5N. […] Data points in FIG. 8 represent average values at each concentration from two independent experiments.

[2] = system: pancreatic islets of Langerhans; experiment: Glucose-stimulated insulin secretion (GSIS) by isolated rat islets, insulin ELISA; assay type: cell-based, Sprague-Dawley rats; details: 1 μM compound
Procedure: Pancreatic islets of Langerhans were isolated from adult male Sprague-Dawley rats using a standard collagenase infusion and digestion procedure as described in Example 5. Islets were cultured at 37° C. for 1-2 days in CMRL-1066 medium supplemented with 5.5 mM glucose, 10% fetal bovine serum, 100 U/ml penicillin and 100 μg/ml streptomycin, in a humidified atmosphere containing 5% CO2. Islets were manually picked and washed in Krebs Ringer Bicarbonate buffer (KRB: 134 mM NaCl, 4.7 mM KCl, 1.2 mM KH2PO4, 1.2 mM MgSO4, 1 mM CaCl2, 10 mM NaHCO3, pH 7.4) in preparation for measurement of glucose-stimulated insulin secretion (GSIS). Aliquots of washed islets were preincubated in oxygenated KRB supplemented with 16 mM HEPES, 0.01% fetal bovine serum and 5.5 mM glucose for 60 min at 37° C. […] Cell-conditioned media samples were then collected by centrifugation and their insulin content was determined using enzyme-linked immunosorbent assay (ELISA) kits (CrystalChem or ALPCO rat insulin ELISA) according to the kit supplier's instructions. Following treatment with a preferred compound, the concentration of insulin detected in the islet-conditioned medium was at least 1.5 times the insulin concentration detected in the medium conditioned by islets that were exposed to 8 mM glucose. […]

[3] = system: rat pancreatic islet cells; experiment: Insulin secretion by rat pancreatic islet cells, 5 mM or 8 mM glucose (FIG. 3); assay type: cell-based; details: various concentrations
[4] = target: T1, mitochondrial Na+/Ca2+ exchanger (Rattus norvegicus, UniProt Q6AXS0); experiment: Na+-induced Ca2+ release from rat heart mitochondria, Ca2+-selective electrode; assay type: biochemical; details: 20 μM compound
T1 construct: Rat heart mitochondria were isolated using a modified differential centrifugation protocol; from tissue; host or cells: rat heart mitochondria
T1 sequence (Q6AXS0 27-585): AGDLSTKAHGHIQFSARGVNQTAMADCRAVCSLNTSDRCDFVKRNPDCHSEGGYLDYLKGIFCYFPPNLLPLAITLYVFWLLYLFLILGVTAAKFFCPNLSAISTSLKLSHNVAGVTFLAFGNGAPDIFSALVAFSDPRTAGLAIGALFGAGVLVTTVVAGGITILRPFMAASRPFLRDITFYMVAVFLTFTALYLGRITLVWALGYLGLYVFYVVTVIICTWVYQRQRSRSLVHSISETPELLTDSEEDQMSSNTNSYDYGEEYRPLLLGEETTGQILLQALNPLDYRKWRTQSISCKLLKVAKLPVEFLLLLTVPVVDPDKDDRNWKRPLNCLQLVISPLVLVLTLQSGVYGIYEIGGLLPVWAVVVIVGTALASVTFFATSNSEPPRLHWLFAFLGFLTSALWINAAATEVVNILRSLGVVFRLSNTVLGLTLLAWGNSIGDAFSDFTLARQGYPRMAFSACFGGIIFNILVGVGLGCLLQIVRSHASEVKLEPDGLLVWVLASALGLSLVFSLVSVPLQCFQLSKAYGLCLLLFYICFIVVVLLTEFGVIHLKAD
Procedure: (§1) Rat heart mitochondria were isolated using a modified differential centrifugation protocol essentially as described by Sordahl (Methods in Studying Cardiac Membranes (1984), pp 65-74). Experiments to assess effects on transmitochondrial membrane transport of calcium were carried out at 25° C. in a buffer consisting of 250 mM sucrose, 10 mM HEPES (pH 7.4), 5 mM Pi, 5 mM succinate, 1 μM rotenone, supplemented with 1 μM cyclosporine A to prevent interference from the Ca^2+-dependent permeability transition pore (PTP). Ca^2+ uptake and release were measured using a Ca^2+-selective electrode in a custom-constructed chamber additionally equipped for monitoring mitochondrial swelling via changes in light scattering (World Precision Instruments, Inc., Sarasota, Fla.). Alternatively, Ca^2+ fluxes were followed fluorometrically using the Calcium Green 5N™ indicator according to the supplier's recommendations (Molecular Probes, Eugene, Oreg.).
(§2) Mitochondria (0.5 mg/ml) that were energized by the presence of succinate accumulated endogenous Ca^2+ from the medium (trace calcium from water source). Additional Ca^2+ (20 μM ) was added to the reaction buffer 2-3 minutes following commencement of measurements with the calcium electrode. […] No PTP activation (swelling) was detected under experimental conditions used.

[5] = system: INS-1 rat insulinoma cells; experiment: Insulin secretion by INS-1 cells, basal or 8 mM glucose (radioimmunoassay); assay type: cell-based; details: 15, 30 or 60 minutes, FIG. 2
Procedure: INS-1 rat insulinoma cells were provided by Prof. Claes Wollheim, , Geneva, Switzerland, and cultured at 37° C. in a humidified […] (Gibco BRL, Gaithersburg, Md.) fetal bovine serum (Irvine Scientific, Irvine, Calif.), 2 mM […], 100 U/ml streptomycin, 10 mM HEPES, 1 mM sodium pyruvate and 50 μM β-mercaptoethanol (all reagents Sigma, St. Louis, Mo., unless otherwise noted).
INS-1 cells were seeded into 24-well plates containing RPMI media supplemented at 0.5×10^6 cells/well and cultured at 37° C., 5% CO2 for 2 days. Cells at or near confluence (0.7×10^6cells/well) were rinsed with glucose-free KRH buffer (134 mM NaCl, 4.7 mM KCl, 1.2 mM KH2PO4, 1.2 mM MgSO4, 1.0 mM CaCl2, 10 mM HEPES-ph 7.4, 25 mM NaHCO3, 0.5% BSA), then incubated in the same buffer for 1 hr at 37° C. in a humidified 5% CO2/95% air atmosphere. […] Insulin concentrations in the supernatants were measured and normalized to cell number using an insulin-specific radioimmunoassay kit (ICN Biochemicals, Irvine, Calif.) according to the manufacturer's instructions. […]

[6] = target: T1, mitochondrial Na+/Ca2+ exchanger; experiment: Na+-induced Ca2+ release from mitochondria, Calcium Green 5N fluorescence; assay type: biochemical
Procedure: as §1, §2

[7] = target: T2, mitochondrial calcium/sodium antiporter (Rattus norvegicus, UniProt Q6AXS0); experiment: Inhibition of mitochondrial calcium/sodium antiporter activity in digitonin-permeabilized INS-1 cells (calcium green 5N); assay type: cell-based
T2 construct: endogenous in cells; host or cells: INS-1 rat insulinoma cells, digitonin-permeabilized
T2 sequence (Q6AXS0 27-585): T1 sequence (Q6AXS0 27-585)
Procedure: INS-1 rat insulinoma cells (see Example 3) were harvested by trypsinization, washed and resuspended at 10×10^6 cells/ml in assay buffer (250 mM sucrose, 10 mM HEPES, 2.5 mM K2HPO4, 5 mM succinate, pH 7.4) containing 0.007% digitonin, 60 μM CaCl2 and 0.05 μM calcium green 5N (Molecular Probes, Inc., Eugene, OR). After a five minute calcium loading incubation, ruthenium red (1 μM; Sigma, St. Louis, MO) was added to block further calcium uptake by mitochondria. Cell suspensions were dispensed into 96-well plates (100 μl per well, 1×10^6 cells per well) and candidate agents (i.e., candidate mitochondrial calcium/sodium antiporter inhibitors) were added to some sets of triplicate wells at concentrations of 1, 10 or 100 μM, while other sets of wells provided appropriate control conditions (e.g., buffer and vehicle controls). Baseline fluorescence measurements were made using a multiwell plate fluorimeter (F-MAX™, Molecular Devices Corp., Sunnyvale, Calif.; or PolarStar , BMG Labtechnologies, Inc., Durham, N.C.) according to the manufacturer's instructions. Calcium efflux from mitochondria was then induced by adding NaCl to all wells to achieve a final concentration of 20 mM, and the rate of change in fluorescence in each well was monitored was monitored for two minutes and quantified using software included with the plate reader.

O=C1CSC(c2ccccc2Cl)c2cc(Cl)ccc2N1 (stereo not drawn) [Compound No. 1, 7-chloro-5-(2-chlorophenyl)-1,5-dihydro-4,1-benzothiazepin-2-one]
inhibition of sodium-calcium exchange activity [1]: inhibited in a dose-dependent fashion
stimulation of GSIS relative to GSIS detected with 8 mM glucose [2]: 222 (±48) %
glucose stimulated insulin secretion by rat islets [3]: enhancement
inhibition at 20 µM [4]: ~50%
inhibition of Na+-induced rapid Ca2+ release ([4]; FIG. 4): inhibited completely
glucose stimulated insulin secretion by INS-1 cells [5]: enhanced

O=C(O)CN1C(=O)CSC(c2ccccc2Cl)c2cc(Cl)ccc21 (stereo not drawn) [Compound No. 2]
concentrations at which inhibition was observed [6]: ≥ 100 µM

O=C1C[S+]([O-])C(c2ccccc2Cl)c2cc(Cl)ccc2N1 (stereo not drawn) [Compound No. 24]
stimulation of GSIS relative to GSIS detected with 8 mM glucose [2]: 178%
IC50 ([7]; permeabilized INS-1 cells, 20 mM NaCl-induced calcium efflux, read-out: IC50, MCA inhibition): < 100 µM

Cc1ccccc1C1OCC(=O)Nc2ccc(Cl)cc21 (stereo not drawn) [compound 10]
IC50 [7]: < 100 µM

Cc1ccc(C2SCC(=O)Nc3ccc(Cl)cc32)c(C)c1 (stereo not drawn) [compound 21]
IC50 [7]: < 100 µM

O=C1CSC(c2ccccc2Cl)c2ccccc2N1 (stereo not drawn) [compound 23]
IC50 [7]: < 100 µM
